Target: human ALK5 (Homo sapiens (Human), UniProt P36897)
Assay: ADP-GLO Kinases assay (ALK5 enzymatic activity)
Format: biochemical
Conditions: purified recombinant human ALK5 2.6 nM, TGFβ1 peptide substrate, 25° C., 150 min incubation, ADP-Glo detection
Description: The enzymatic activity of compounds of the present invention was monitored measuring the formation of ADP using the ADP-GLO Kinases assay. Following the incubation of the purified enzyme, a substrate and ATP, the produced ADP was converted into ATP, which in turn was converted into light by Ultra-Glo Luciferase. The luminescent signal positively correlated with ADP amount and kinase activity. Briefly, the kinase reaction was performed by incubating 2.6 nM of the purified, commercially available human ALK5 (recombinant TGF β1 N-term GST-tagged, 80-end), a final concentration of TGFβ1 peptide 94.5 μM (Promega, T36-58) and ultra-pure ATP (Promega V915B). The ATP concentration was set at the Km value (concentration of substrate which permits the enzyme to achieve half maximal velocity (Vmax)) of ALK5 (5 μM). All reactions/incubations were performed at 25° C. Compound and ALK5 kinase were mixed and incubated for 15 mins. Reactions were initiated by addition of ATP at a final concentration in the assay of 0.83 μM. After an incubation of 150 min, the reaction was stopped, and ADP production detected with ADP-Glo kit according to manufacturer's indications. The assay was performed in 384-well format and was validated using a selection of reference compounds that was tested in 11 point concentration-response curve.

Chain of human ALK5 (P36897 80-503 limits assumed): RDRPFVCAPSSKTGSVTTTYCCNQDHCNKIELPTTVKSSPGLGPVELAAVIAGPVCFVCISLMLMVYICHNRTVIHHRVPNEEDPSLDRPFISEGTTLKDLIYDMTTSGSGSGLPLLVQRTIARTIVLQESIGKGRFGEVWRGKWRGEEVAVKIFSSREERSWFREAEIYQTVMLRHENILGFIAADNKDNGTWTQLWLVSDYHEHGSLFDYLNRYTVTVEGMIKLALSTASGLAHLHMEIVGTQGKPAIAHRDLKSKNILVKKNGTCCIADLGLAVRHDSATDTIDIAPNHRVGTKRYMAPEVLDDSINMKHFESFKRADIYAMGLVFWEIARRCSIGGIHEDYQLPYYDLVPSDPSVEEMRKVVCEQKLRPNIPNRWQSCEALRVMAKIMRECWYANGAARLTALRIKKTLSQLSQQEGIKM

Compound	IC50 [nM]
Cc1csc(-c2nc3n(c2-c2cc4cnccc4s2)CCN3)n1 [Example 7, 2-(6-(4-Methylthiazol-2-yl)-2,3-dihydro-1H-imidazo[1,2-a]imidazol-5-yl)thieno[3,2-c]pyridine]	< 1
Cn1ccc(-c2nc3n(c2-c2ccc4ncnn4c2)CCN3)n1 [Example 8, 6-(6-(1-Methyl-1H-pyrazol-3-yl)-2,3-dihydro-1H-imidazo[1,2-a]imidazol-5-yl)-[1,2,4]triazolo[1,5-a]pyridine]	5 to 10
Cn1ccc(-c2nc3n(c2-c2cc4cnccc4s2)CCN3)n1 [Example 9, 2-(6-(1-Methyl-1H-pyrazol-3-yl)-2,3-dihydro-1H-imidazo[1,2-a]imidazol-5-yl)thieno[3,2-c]pyridine]	1 to 5
Cc1cccc(-c2nc3n(c2-c2cccc4ncsc24)CCN3)n1 [Example 15]	5 to 10
CCOC(=O)CC1Cn2c(nc(-c3cccc(C)n3)c2-c2cc3cnccc3s2)N1 (stereo not shown) [Example 20, Ethyl 2-[6-(6-methylpyridin-2-yl)-5-{thieno[3,2-c]pyridin-2-yl}-1H,2H,3H-imidazo[1,2-a][1,3]diazol-2-yl] acetate]	1 to 5
Cc1cccc(-c2nc3n(c2-c2cc4cnccc4s2)CC(CC(=O)O)N3)n1 (stereo not shown) [Example 21, 2-[6-(6-Methylpyridin-2-yl)-5-{thieno[3,2-c]pyridin-2-yl}-1H,2H,3H-imidazo[1,2-a][1,3]diazol-2-yl]acetic acid]	1 to 5
CCN1CCn2c1nc(-c1cccc(C)n1)c2-c1ccc2ncnn2c1 [Example 22, 6-(1-Ethyl-6-(6-methylpyridin-2-yl)-2,3-dihydro-1H-imidazo[1,2-a]imidazol-5-yl)-[1,2,4]triazolo[1,5-a]pyridine]	< 1
CCOC(=O)C1Cn2c(nc(-c3cccc(C)n3)c2-c2ccc3ncnn3c2)N1 (stereo not shown) [Example 26, Ethyl 6-(6-methylpyridin-2-yl)-5-{[1,2,4]triazolo[1,5-a]pyridin-6-yl}-1H,2H,3H-imidazo[1,2-a][1,3]diazole-2-carboxylate]	1 to 5
Cc1cccc(-c2nc3n(c2-c2cc4cnccc4s2)CC(C(=O)N(C)C)N3)n1 (stereo not shown) [Example 29, N,N-Dimethyl-6-(6-methylpyridin-2-yl)-5-{thieno[3,2-c]pyridin-2-yl}-1H,2H,3H-imidazo[1,2-a][1,3]diazole-2-carboxamide]	1 to 5
Cc1cccc(-c2nc3n(c2-c2ccc4snnc4c2)CCN3)n1 [Example 30, 5-(6-(6-Methylpyridin-2-yl)-2,3-dihydro-1H-imidazo[1,2-a]imidazol-5-yl)benzo[d][1,2,3] thiadiazole]	1 to 5
Cc1cccc(-c2nc3n(c2-c2ccc4nnsc4c2)CCN3)n1 [Example 31, 6-(6-(6-Methylpyridin-2-yl)-2,3-dihydro-1H-imidazo[1,2-a]imidazol-5-yl)benzo[d][1,2,3] thiadiazole]	< 1

Other lines, results leading:

IC50 [nM]	Compound
< 1	CCN1CCn2c1nc(-c1cccc(C)n1)c2-c1ccc2ncsc2c1 [Example 33, 6-[1-Ethyl-6-(6-methylpyridin-2-yl)-1H,2H,3H-imidazo[1,2-a][1,3]diazol-5-yl]-1,3-benzothiazole]
1 to 5	Cc1cccc(-c2nc3n(c2-c2ccnc4[nH]ccc24)CCN3)n1 [Example 35, 4-(6-(6-Methylpyridin-2-yl)-2,3-dihydro-1H-imidazo[1,2-a]imidazol-5-yl)-1H-pyrrolo[2,3-b]pyridine]
1 to 5	CCN1CCn2c1nc(-c1cccc(C)n1)c2-c1cc2cnccc2s1 [Example 42, 2-(1-Ethyl-5-{thieno[3,2-c]pyridin-2-yl}-1H,2H,3H-imidazo[1,2-a] [1,3]diazol-6-yl)-6-methylpyridine]
1 to 5	Cc1cccc(-c2nc3n(c2-c2ccc(F)c(N)c2)CCN3)n1 [Example 43, 2-Fluoro-5-(6-(6-methylpyridin-2-yl)-2,3-dihydro-1H-imidazo[1,2-a]imidazol-5-yl) aniline]
1 to 5	Cc1cccc(-c2nc3n(c2-c2ccc4nc(N)sc4c2)CCN3)n1 [Example 48, 6-(6-(6-Methylpyridin-2-yl)-2,3-dihydro-1H-imidazo[1,2-a]imidazol-5-yl)benzo[d] thiazol-2-amine]
1 to 5	Cc1cccc(-c2nc3n(c2-c2ccc(O)cc2)CCN3)n1 [Example 55, 4-[6-(6-Methylpyridin-2-yl)-1H,2H,3H-imidazo[1,2-a][1,3]diazol-5-yl]phenol]
5 to 10	Cc1cccc(-c2nc3n(c2-c2ccnc(N)c2)CCN3)n1 [Example 56, 4-[6-(6-Methylpyridin-2-yl)-1H,2H,3H-imidazo[1,2-a][1,3]diazol-5-yl]pyridin-2-amine]
< 1	COc1cccc(-c2nc3n(c2-c2ccc4ncsc4c2)CCN3)n1 [Example 57, 6-[6-(6-Methoxypyridin-2-yl)-1H,2H,3H-imidazo[1,2-a][1,3]diazol-5-yl]-1,3-benzothiazole]
